The source of these data is ChEMBL document CHEMBL1255229, “Novel antimicrobial peptides that exhibit activity against select agents and other drug resistant bacteria” (2010).

In brackets after ≈: the same amount, converted by molar mass. Starred links: 1 amine or outer side, 2 acyl side, 3 side chain; linkers in the order of their positions; H or OH if unused. Non-standard residues stand in square brackets, D forms with d. Residues, ends and D or L forms follow the SMILES beside them. ξ: configuration not given here. Pro(3ξ,4ξ-(CH2)4) = O=C(O)[C@H]1NCC2CCCCC21; X1 = O=C([C@@H]1CN([*:1])C2CCCCC21)[*:2]; Phe(4-F) = N[C@@H](Cc1ccc(F)cc1)C(=O)O; Tic = O=C(O)[C@@H]1Cc2ccccc2CN1; Dap = NC[C@H](N)C(=O)O; βAla = NCCC(=O)O

Type in all cases: functional
One assay relates to Francisella tularensis. The experiment in a line: Antimicrobial activity against Francisella tularensis SCHU-S4 after 24 hrs. To be noted: SCHU-S4, 24 h.
Another assay relates to Burkholderia mallei. The experiment in a line: Antimicrobial activity against Burkholderia mallei ATCC 23444 after 24 hrs. To be noted: ATCC 23444, 24 h.
Assay [1] concerns Acinetobacter baumannii. Briefly: Antimicrobial activity against Acinetobacter baumannii ATCC 19606 after 24 hrs. To be noted: ATCC 19606 = CIP 70.34 = JCM 6841, 24 h.
Another assay has as its system Yersinia pestis. The experiment in a line: Antimicrobial activity against Yersinia pestis CO92 after 24 hrs. To be noted: CO92, 24 h.
The subject of another assay is Brucella suis. Briefly: Antimicrobial activity against Brucella suis ATCC 23445 after 24 hrs. To be noted: ATCC 23445, 24 h.
Assay [2] relates to Burkholderia pseudomallei. The experiment in a line: Antimicrobial activity against Burkholderia pseudomallei BURK003(1026b) after 24 hrs.
For another assay, the system named is Bacillus anthracis. Briefly: Antimicrobial activity against Bacillus anthracis Ames after 24 hrs.
Another assay relates to Staphylococcus aureus. Briefly: Antimicrobial activity against methicillin-resistant Staphylococcus aureus ATCC 33591 after 24 hrs. To be noted: ATCC 33591, 24 h.
The test system of assay [3] is Acinetobacter baumannii. Briefly: Antimicrobial activity against Acinetobacter baumannii WRAIR after 24 hrs.
A further assay relates to Brucella melitensis. Briefly: Antimicrobial activity against Brucella melitensis 16 M after 24 hrs.
The next assay has as its system Brucella abortus. Briefly: Antimicrobial activity against Brucella abortus 2308 after 24 hrs. To be noted: Brucella abortus, 2308, 24 h.

Take `CC(=O)NCCC(=O)N[C@@H](Cc1ccc(F)cc1)C(=O)N1Cc2ccccc2C[C@H]1C(=O)N1CC2CCCCC2[C@H]1C(=O)NCCC(=O)N[C@@H](CN)C(=O)N1Cc2ccccc2C[C@H]1C(=O)N1CC2CCCCC2[C@H]1C(=O)NCCC(=O)N[C@@H](Cc1ccc(F)cc1)C(=O)N1Cc2ccccc2C[C@H]1C(=O)N1CC2CCCCC2[C@H]1C(=O)NCCC(=O)N[C@@H](CN)C(=O)N1Cc2ccccc2C[C@H]1C(=O)N[C@@H](CN)C(=O)N[C@@H](CN)C(=O)N[C@@H](CN)C(=O)N[C@@H](CN)C(N)=O` (stereo partly drawn) (Ac-[βAla][Phe(4-F)][Tic][Pro(3ξ,4ξ-(CH2)4)][βAla][Dap][Tic][Pro(3ξ,4ξ-(CH2)4)][βAla][Phe(4-F)][Tic][Pro(3ξ,4ξ-(CH2)4)][βAla][Dap][Tic][Dap][Dap][Dap][Dap]-NH2): the minimum inhibitory concentration (MIC) against Francisella tularensis is 219 µM (≈ 499 µg/mL); in the assay with Burkholderia mallei it was 219 µM (≈ 499 µg/mL); with Acinetobacter baumannii [1] it was 3.4 µM (≈ 7.75 µg/mL); against Yersinia pestis, 219 µM (≈ 499 µg/mL); against Brucella suis it was 219 µM (≈ 499 µg/mL); in assay [2] it was 219 µM (≈ 499 µg/mL). In addition, the MIC amounted to 6.8 µM (≈ 15.5 µg/mL) in the assay with Bacillus anthracis; 109 µM (≈ 249 µg/mL) against Staphylococcus aureus; 3.4 µM (≈ 7.75 µg/mL) in the assay with Acinetobacter baumannii [3]; 219 µM (≈ 499 µg/mL) against Brucella melitensis; 219 µM (≈ 499 µg/mL) in the assay with Brucella abortus.

Take `CC(C)C[C@H](NC(=O)[C@@H](N)CCCCN)C(=O)N1Cc2ccccc2C[C@H]1C(=O)N1C[C@@H](C(=O)NCC(=O)N[C@@H](CCCCN)C(=O)N2Cc3ccccc3C[C@H]2C(=O)N2C[C@@H](C(=O)N[C@@H](Cc3ccccc3)C(=O)N3Cc4ccccc4C[C@H]3C(=O)N3C[C@@H](C(=O)NCC(=O)N[C@@H](CCCCN)C(=O)N4Cc5ccccc5C[C@H]4C(=O)N4C[C@@H](C(=O)N[C@@H](Cc5ccccc5)C(=O)N5Cc6ccccc6C[C@H]5C(=O)N5C[C@@H](C(=O)NCC(=O)N[C@@H](CCCCN)C(=O)N6Cc7ccccc7C[C@H]6C(=O)N6C[C@@H](C(=O)N[C@@H](CCCCN)C(=O)N[C@@H](CCCCN)C(=O)N[C@@H](CCCCN)C(=O)N[C@@H](CCCCN)C(N)=O)C7CCCCC76)C6CCCCC65)C5CCCCC54)C4CCCCC43)C3CCCCC32)C2CCCCC21` (stereo partly drawn) (H-KL[Tic][X1]GK[Tic][X1]F[Tic][X1]GK[Tic][X1]F[Tic][X1]GK[Tic][X1]KKKK-NH2): the minimal inhibitory concentration (MIC) against Francisella tularensis stood at 144 µM (≈ 502 µg/mL); in the assay with Burkholderia mallei, 144 µM (≈ 502 µg/mL); in the assay on Acinetobacter baumannii [1], 4.6 µM (≈ 16 µg/mL); against Yersinia pestis, 144 µM (≈ 502 µg/mL); against Brucella suis it was 144 µM (≈ 502 µg/mL); in [2], 144 µM (≈ 502 µg/mL). For the same compound, the MIC with Bacillus anthracis stood at 8.97 µM (≈ 31.2 µg/mL); with Staphylococcus aureus, 17.9 µM (≈ 62.4 µg/mL); in the assay on Acinetobacter baumannii [3], 144 µM (≈ 502 µg/mL); in the assay with Brucella melitensis, 144 µM (≈ 502 µg/mL); against Brucella abortus, 144 µM (≈ 502 µg/mL).

For the compound `CC(C)C[C@H](NC(=O)[C@@H](N)CCCCN)C(=O)N1Cc2ccccc2C[C@H]1C(=O)N1C[C@@H](C(=O)N[C@@H](CCCCN)C(=O)N2Cc3ccccc3C[C@H]2C(=O)N2C[C@@H](C(=O)N[C@@H](Cc3ccccc3)C(=O)N3Cc4ccccc4C[C@H]3C(=O)N3C[C@@H](C(=O)N[C@@H](CCCCN)C(=O)N4Cc5ccccc5C[C@H]4C(=O)N4C[C@@H](C(=O)N[C@@H](Cc5ccccc5)C(=O)N5Cc6ccccc6C[C@H]5C(=O)N5C[C@@H](C(=O)N[C@@H](CCCCN)C(=O)N6Cc7ccccc7C[C@H]6C(=O)N6C[C@@H](C(=O)N[C@@H](CCCCN)C(=O)N[C@@H](CCCCN)C(=O)N[C@@H](CCCCN)C(=O)N[C@@H](CCCCN)C(N)=O)C7CCCCC76)C6CCCCC65)C5CCCCC54)C4CCCCC43)C3CCCCC32)C2CCCCC21` (stereo partly drawn) (H-KL[Tic][X1]K[Tic][X1]F[Tic][X1]K[Tic][X1]F[Tic][X1]K[Tic][X1]KKKK-NH2), the minimum inhibitory concentration (MIC) in the assay with Francisella tularensis stood at 150 µM (≈ 497 µg/mL); against Burkholderia mallei it was 150 µM (≈ 497 µg/mL); with Acinetobacter baumannii [1], 9.3 µM (≈ 30.8 µg/mL); with Yersinia pestis, 150 µM (≈ 497 µg/mL); against Brucella suis it was 150 µM (≈ 497 µg/mL); in assay [2], 150 µM (≈ 497 µg/mL). In addition, the MIC against Bacillus anthracis, against Staphylococcus aureus, against Acinetobacter baumannii [3], against Brucella melitensis and in the assay with Brucella abortus was 150 µM (≈ 497 µg/mL) each time.

In general, MIC refers to the lowest concentration found to suppress growth. Lower therefore signals greater potency.
